We go through 28 compounds from patent publication US9708316B2 (BRISTOL-MYERS SQUIBB COMPANY, priority 2014, dated 2017).

Assay [1] deals with T1, HIS-TGFβR1 T204D (Homo sapiens, UniProt P36897, T204D).
T1 sequence (P36897 34-503 T204D): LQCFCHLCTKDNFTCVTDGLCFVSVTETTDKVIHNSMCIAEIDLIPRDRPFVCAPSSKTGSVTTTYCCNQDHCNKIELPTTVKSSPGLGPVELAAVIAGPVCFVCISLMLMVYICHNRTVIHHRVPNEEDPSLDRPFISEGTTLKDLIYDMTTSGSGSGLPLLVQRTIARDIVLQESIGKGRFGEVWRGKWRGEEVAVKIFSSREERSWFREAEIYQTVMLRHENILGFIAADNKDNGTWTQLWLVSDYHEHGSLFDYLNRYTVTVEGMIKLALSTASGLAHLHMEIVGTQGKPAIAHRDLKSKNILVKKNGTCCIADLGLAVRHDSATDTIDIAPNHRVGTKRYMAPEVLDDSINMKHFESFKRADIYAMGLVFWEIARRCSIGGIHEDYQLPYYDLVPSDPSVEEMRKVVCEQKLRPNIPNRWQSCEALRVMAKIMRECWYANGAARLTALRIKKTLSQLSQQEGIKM
The assay is described as follows: HTRF probe-displacement assay, HIS-TGFβR1 T204D. The settings on record: read-out: TGFβR1 (μM) IC50. The format is binding.

The target in assay [2] is HIS-TGFβR2 WT (Homo sapiens, UniProt P37173). Briefly: HTRF probe-displacement assay, HIS-TGFβR2 WT. The format is binding. For orientation: Time-resolved FRET reads energy transfer from a long-lived donor to a nearby acceptor.
Sequence of HIS-TGFβR2 WT (P37173 23-567): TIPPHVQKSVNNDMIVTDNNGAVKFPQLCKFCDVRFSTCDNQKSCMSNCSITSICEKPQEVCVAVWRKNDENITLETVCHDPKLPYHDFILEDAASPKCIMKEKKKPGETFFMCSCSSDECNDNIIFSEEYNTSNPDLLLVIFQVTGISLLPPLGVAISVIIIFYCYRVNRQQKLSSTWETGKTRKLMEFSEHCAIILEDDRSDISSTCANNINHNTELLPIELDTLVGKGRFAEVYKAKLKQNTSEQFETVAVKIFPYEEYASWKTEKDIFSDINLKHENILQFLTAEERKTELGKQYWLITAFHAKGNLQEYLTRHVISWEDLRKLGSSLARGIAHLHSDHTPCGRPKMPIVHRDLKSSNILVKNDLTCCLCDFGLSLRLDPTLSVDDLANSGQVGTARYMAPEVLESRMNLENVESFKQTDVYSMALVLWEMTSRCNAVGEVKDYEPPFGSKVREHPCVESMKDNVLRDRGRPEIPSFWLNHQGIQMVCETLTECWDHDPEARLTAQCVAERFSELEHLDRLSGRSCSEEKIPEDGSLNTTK

The structures appear in SMILES notation.

As to `COc1ccc(-c2c(-c3ccnc(NC(C)=O)c3)[nH]c3c(C#N)ccnc23)cn1` [Example 80, N-(4-(7-Cyano-3-(6-methoxypyridin-3-yl)-1H-pyrrolo[3,2-b]pyridin-2-yl)pyridin-2-yl)acetamide], the IC50 in assay [1] is 0.007 µM; in assay [2], 0.083 µM.

Consider `CC(=O)Nc1cc(-c2[nH]c3cc(Cl)cnc3c2-c2nc(C#N)cs2)ccn1` [Example 177, N-(4-(6-Chloro-3-(4-cyanothiazol-2-yl)-1H-pyrrolo[3,2-b]pyridin-2-yl)pyridin-2-yl)acetamide], for which the figures for the half-maximal inhibitory concentration (IC50) in assay [1] and in assay [2] were 0.0014 µM and greater than 15 µM, respectively.

`COc1ccc(-c2c(-c3ccnc(NC(C)=O)c3)[nH]c3ccc(F)nc23)cn1` [Example 36, N-{4-[5-Fluoro-3-(6-methoxypyridin-3-yl)-1H-pyrrolo[3,2-b]pyridin-2-yl]pyridin-2-yl}acetamide]: the 50% inhibitory concentration (IC50) in assay [1] was found to be 0.002 µM; in assay [2], 0.06 µM.

On to `CC(=O)Nc1cc(-c2c(-c3cccc(C(F)F)n3)c3ncccc3n2CC(N)=O)ccn1` [Example 114, 2-(2-(2-Acetamidopyridin-4-yl)-3-(6-(difluoromethyl)pyridin-2-yl)-1H-pyrrolo[3,2-b]pyridin-1-yl)acetamide], for which the concentration for half-maximal inhibition (IC50) in assay [1] was 0.55 µM; in assay [2] it was greater than 15 µM.

As to `C[C@H](O)C(=O)Nc1cc(-c2[nH]c3cc(Cl)cnc3c2-c2ccc(F)cn2)ccn1` [Example 73], the results for the IC50 in assay [1] and in assay [2] were 0.019 µM and 15.5 µM, respectively.

In the case of `CC(=O)Nc1cc(-c2[nH]c3cccnc3c2-c2cc(C)ccn2)ccn1` [Example 31, N-{4-[3-(4-Methylpyridin-2-yl)-1H-pyrrolo[3,2-b]pyridin-2-yl]pyridin-2-yl}acetamide], the IC50 in assay [1] was 0.019 µM; in assay [2] it was 0.66 µM.

Regarding `CCOc1cccc(-c2c(-c3ccnc(NC(C)=O)c3)[nH]c3cc(Cl)cnc23)n1` [Example 256, N-(4-(6-Chloro-3-(6-ethoxypyridin-2-yl)-1H-pyrrolo[3,2-b]pyridin-2-yl)pyridin-2-yl)acetamide], the half-inhibitory concentration (IC50) in assay [1] was 0.02 µM; in assay [2] it was greater than 15 µM.

As to `CC(=O)Nc1cc(-c2[nH]c3cc(C)cnc3c2-c2ncc(C(F)F)s2)ccn1` [Example 185, N-(4-(3-(5-(Difluoromethyl)thiazol-2-yl)-6-methyl-1H-pyrrolo[3,2-b]pyridin-2-yl)pyridin-2-yl)acetamide], the figures for the IC50 in assay [1] and in assay [2] were 7 µM and greater than 15 µM, respectively.

`CCOc1ccc(-c2c(-c3ccnc(NC(C)=O)c3)[nH]c3cc(Cl)cnc23)nc1` [Example 253, N-(4-(6-Chloro-3-(5-ethoxypyridin-2-yl)-1H-pyrrolo[3,2-b]pyridin-2-yl)pyridin-2-yl)acetamide]: the results for the 50% inhibitory concentration (IC50) in assay [1] and in assay [2] were 0.004 µM and greater than 15 µM, respectively.

Consider `CCCc1ccnc2c(-c3cccc(C(F)F)n3)c(-c3ccnc(NC(C)=O)c3)[nH]c12` [Example 132, N-(4-{3-[6-(Difluoromethyl)pyridin-2-yl]-7-propyl-1H-pyrrolo[3,2-b]pyridin-2-yl}pyridin-2-yl)acetamide], for which the IC50 was 0.001 µM in assay [1] and greater than 15 µM in assay [2].

With `COc1ccc(-c2c(-c3ccnc(NC(=O)CN4CCN(C)CC4)c3)[nH]c3cccnc23)cn1` [Example 287, N-(4-(3-(6-Methoxypyridin-3-yl)-1H-pyrrolo[3,2-b]pyridin-2-yl)pyridin-2-yl)-2-(4-methylpiperazin-1-yl)acetamide], the IC50 was 0.001 µM in assay [1] and 0.668 µM in assay [2].

On to `CN1CCN(CC(=O)Nc2cc(-c3[nH]c4cc(Cl)cnc4c3-c3ccc(F)cn3)ccn2)CC1` [Example 88, N-{4-[6-Chloro-3-(5-fluoropyridin-2-yl)-1H-pyrrolo[3,2-b]pyridin-2-yl]pyridin-2-yl}-2-(4-methylpiperazin-1-yl)acetamide], for which the 50% inhibitory concentration (IC50) in assay [1] turned out to be 0.001 µM; in assay [2], 9.92 µM.

Turning to `CC(=O)Nc1cc(-c2[nH]c3cc(Cl)cnc3c2-c2nc(C(F)(F)F)cs2)ccn1` [Example 175, N-(4-(6-Chloro-3-(4-(trifluoromethyl)thiazol-2-yl)-1H-pyrrolo[3,2-b]pyridin-2-yl)pyridin-2-yl)acetamide], the IC50 in assay [1] is 0.0004 µM; in assay [2] it was greater than 15 µM.

As for `CC(=O)Nc1cc(-c2[nH]c3cc(Cl)cnc3c2-c2cccc(Cl)n2)ccn1` [Example 41, N-{4-[3-(6-Chloropyridin-2-yl)-6-chloro-1H-pyrrolo[3,2-b]pyridin-2-yl]pyridin-2-yl}acetamide], the concentration for half-maximal inhibition (IC50) in assay [1] stood at 0.002 µM; in assay [2] it was 0.13 µM.

For the compound `CC(=O)Nc1cc(-c2[nH]c3c(C(C)O)ccnc3c2-c2cccc(F)n2)ccn1` (centres unmarked) [Example 262, N-(4-(3-(6-Fluoropyridin-2-yl)-7-(1-hydroxyethyl)-1H-pyrrolo[3,2-b]pyridin-2-yl)pyridin-2-yl)acetamide], the 50% inhibitory concentration (IC50) in assay [1] turned out to be 0.002 µM; in assay [2], 0.267 µM.

Turning to `COc1ccc(-c2c(-c3ccnc(NC(C)=O)c3)[nH]c3cc(C)cnc23)nc1` [Example 184, N-(4-(3-(5-Methoxypyridin-2-yl)-6-methyl-1H-pyrrolo[3,2-b]pyridin-2-yl)pyridin-2-yl)acetamide], the half-inhibitory concentration (IC50) is 6.52 µM in assay [1] and greater than 15 µM in assay [2].

Regarding `CC(=O)Nc1cc(-c2[nH]c3c(CO)ccnc3c2-c2cccc(C(F)F)n2)ccn1` [Example 142, N-(4-{3-[6-(Difluoromethyl)pyridin-2-yl]-7-(hydroxymethyl)-1H-pyrrolo[3,2-b]pyridin-2-yl}pyridin-2-yl)acetamide], the values for the concentration for half-maximal inhibition (IC50) in assay [1] and in assay [2] were 0.001 µM and 7.81 µM, respectively.

Consider `CC(=O)Nc1cc(-c2[nH]c3c(C)ccnc3c2-c2ncc(C)s2)ccn1` [Example 218, N-(4-(7-Methyl-3-(5-methylthiazol-2-yl)-1H-pyrrolo[3,2-b]pyridin-2-yl)pyridin-2-yl)acetamide], for which the values for the concentration for half-maximal inhibition (IC50) in assay [1] and in assay [2] were 0.0017 µM and 0.594 µM, respectively.

With `[2H]C([2H])([2H])Oc1ccc(-c2c(-c3ccnc(NC(C)=O)c3)[nH]c3cc(OC)cnc23)nc1` [Example 112, N-(4-(6-Methoxy-3-(5-(methoxy-d3)pyridin-2-yl)-1H-pyrrolo[3,2-b]pyridin-2-yl)pyridin-2-yl)acetamide], the IC50 turned out to be 0.001 µM in assay [1] and 8.75 µM in assay [2].

In the case of `O=C(CN1CCNCC1)Nc1cc(-c2[nH]c3cc(Cl)cnc3c2-c2ccc(F)cn2)ccn1` [Example 247, N-(4-(6-Chloro-3-(5-fluoropyridin-2-yl)-1H-pyrrolo[3,2-b]pyridin-2-yl)pyridin-2-yl)-2-(piperazin-1-yl)acetamide], the IC50 in assay [1] was 0.003 µM; in assay [2], no less than 15 µM.

`O=C(CN1CCOCC1)Nc1cc(-c2[nH]c3cc(Cl)cnc3c2-c2ccc(F)cn2)ccn1` [Example 74, N-{4-[6-Chloro-3-(5-fluoropyridin-2-yl)-1H-pyrrolo[3,2-b]pyridin-2-yl]pyridin-2-yl}-2-(morpholin-4-yl)acetamide]: the IC50 in assay [1] is 0.001 µM; in assay [2], 2.6 µM.

As for `CC(=O)Nc1cc(-c2[nH]c3cccnc3c2-c2ccc3cnccc3c2)ccn1` [Example 17, N-{4-[3-(Isoquinolin-6-yl)-1H-pyrrolo[3,2-b]pyridin-2-yl]pyridin-2-yl}acetamide], the IC50 in assay [1] was 0.014 µM; in assay [2], greater than 15 µM.

With `CCCNCc1cnc2c(-c3ccc(OC)cn3)c(-c3ccnc(NC(C)=O)c3)[nH]c2c1` [Example 294, N-(4-(3-(5-methoxypyridin-2-yl)-6-((propylamino)methyl)-1H-pyrrolo[3,2-b]pyridin-2-yl)pyridin-2-yl)acetamide], the IC50 is 0.063 µM in assay [1] and greater than 15 µM in assay [2].

In the case of `O=C(CNCCCN1CCOCC1)Nc1cc(-c2[nH]c3cc(Cl)cnc3c2-c2ccc(F)cn2)ccn1` [Example 89, N-{4-[6-Chloro-3-(5-fluoropyridin-2-yl)-1H-pyrrolo[3,2-b]pyridin-2-yl]pyridin-2-yl}-2-{[3-(morpholin-4-yl)propyl]amino}acetamide], the IC50 in assay [1] was 0.003 µM; in assay [2], 4.81 µM.

`O=C(CN1CCN(CCO)CC1)Nc1cc(-c2[nH]c3cc(Cl)cnc3c2-c2ccc(F)cn2)ccn1` [Example 246, N-(4-(6-Chloro-3-(5-fluoropyridin-2-yl)-1H-pyrrolo[3,2-b]pyridin-2-yl)pyridin-2-yl)-2-(4-(2-hydroxyethyl)piperazin-1-yl)acetamide]: the half-inhibitory concentration (IC50) in assay [1] came to 0.001 µM; in assay [2] it was 5.99 µM.

As to `CC(=O)Nc1cc(-c2[nH]c3cccnc3c2-c2cc(Cl)ccn2)ccn1` [Example 32, N-{4-[3-(4-Chloropyridin-2-yl)-1H-pyrrolo[3,2-b]pyridin-2-yl]pyridin-2-yl}acetamide], the IC50 in assay [1] worked out at 0.049 µM; in assay [2] it was 0.44 µM.

For the compound `COc1ccc(-c2c(-c3ccnc(NC(=O)CN4CCN(C)CC4)c3)[nH]c3cc(Cl)cnc23)cn1` [Example 292, N-(4-(6-chloro-3-(6-methoxypyridin-3-yl)-1H-pyrrolo[3,2-b]pyridin-2-yl)pyridin-2-yl)-2-(4-methylpiperazin-1-yl)acetamide], the results for the IC50 in assay [1] and in assay [2] were 0.001 µM and 1.51 µM, respectively.

In the case of `COc1ccc(-c2c(-c3ccnc(NC(C)=O)c3)[nH]c3cccnc23)nn1` [Example 198, N-(4-(3-(6-Methoxypyridazin-3-yl)-1H-pyrrolo[3,2-b]pyridin-2-yl)pyridin-2-yl)acetamide], the IC50 in assay [1] amounted to 0.0011 µM; in assay [2], 1.48 µM.

One may read the IC50 as the concentration at which inhibition is half-maximal.
